8 molecules from ChEMBL document CHEMBL1201862, “PubChem BioAssay data set” (2004) can be followed below.

Test in all cases: growth of human tumour cells (NCI), 48 h
Assay [1] relates to NCI-H460.
The test system of assay [2] is OVCAR-5.
In assay [3] the test system is HOP-62.
Assay [4] concerns SNB-19.
Assay [5] deals with SK-OV-3.
For assay [6], the system named is UO-31.
The subject of assay [7] is NCI/ADR-RES.
Assay [8] has as its system SF-268.
Assay [9] deals with MOLT-4.
Assay [10] has as its system SR.
Assay [11] has as its system CCRF-CEM.
Assay [12] deals with SNB-75.
Assay [13] relates to SK-MEL-5.
In assay [14] the test system is NCI-H522.
Assay [15] deals with PC-3.
Assay [16] has as its system RPMI-8226.
Assay [17] deals with MDA-MB-435.
In assay [18] the test system is MDA-MB-231.
The test system of assay [19] is A498.
The test system of assay [20] is HL-60.

Each structure is given as a SMILES string.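 Where inhibition never reached the appropriate level, the endpoint shown equals the highest concentration tested. Otherwise, values were interpolated linearly from a five-concentration, 48-hour dose response in 96-well plates. Here, GI50 denotes the concentration required for 50% inhibition of growth.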 Calls of active or inactive are those of the source. Cut-off read from the data, not from the text of the source: active = GI50 up to about 1.1 µM and inactive = higher.

With `OCC1C2CCC3(OCCO3)C12` (stereo unspecified), the GI50 in assay [1] is > 100 µM (inactive); in assay [2], > 100 µM (inactive); in assay [3] it was > 100 µM (inactive); in assay [4], > 100 µM (inactive); in [5], > 100 µM (inactive); in assay [6] it was 15.4 µM (inactive). In addition, the GI50 in [7], in assay [8], in assay [9], in assay [10], in [11] and in assay [12] was > 100 µM (inactive) in each case. Also, the GI50 in assay [13], in [14], in assay [15], in assay [16], in assay [17] and in assay [18] was > 100 µM (inactive) in each case.

On to `Cc1cn(C(Cc2ccccc2)OCCO)c(=O)[nH]c1=O` (stereo unspecified), for which the GI50 in assay [1], in assay [2], in assay [3], in [4], in [19] and in assay [6] was > 100 µM (inactive) each time. The GI50 in [7], in assay [9], in [10], in assay [11], in assay [12] and in assay [13] was > 100 µM (inactive) each time. In addition, the GI50 in [15], in assay [16], in [17] and in assay [18] was > 100 µM (inactive) each time.

For `CN(C)c1ccc(/C=N/NC(=O)c2cnc3ccccc3c2)cc1`, the GI50 was > 100 µM (inactive) in assay [1]; > 100 µM (inactive) in [2]; 35.5 µM (inactive) in assay [3]; 48 µM (inactive) in assay [4]; 26.5 µM (inactive) in assay [5]; > 100 µM (inactive) in [19]. Also, the GI50 is > 100 µM (inactive) in assay [6]; > 100 µM (inactive) in assay [7]; 18 µM (inactive) in assay [8]; > 100 µM (inactive) in assay [20]; 21.9 µM (inactive) in assay [12]; > 100 µM (inactive) in assay [13]. Further, the GI50 in [14] was 18.1 µM (inactive); in assay [15], > 100 µM (inactive); in assay [16], > 100 µM (inactive); in assay [17] it was 4.03 µM (inactive); in [18], 37.8 µM (inactive).

Take `NC(CCC(=O)NC(CSC(=O)N(O)c1ccc(Cl)cc1)C(=O)NCC(=O)O)C(=O)O` (stereo unspecified): the GI50 in [1], in assay [2], in [3], in assay [4], in assay [5] and in [6] was > 0.5 µM (active) in each case. Besides, the GI50 in assay [7], in [8], in [9], in assay [10], in assay [11] and in assay [12] was > 0.5 µM (active) each time. In addition, the GI50 in assay [13], in assay [14], in assay [15], in assay [16], in [17] and in assay [18] was > 0.5 µM (active) throughout.

With `C[C@]12CC[C@@H]3c4ccc(O)cc4CC[C@H]3[C@@H]1CC[C@@H]2OP(=O)(O)O`, the GI50 in assay [1], in [2], in assay [3], in [4], in assay [5] and in assay [19] was > 100 µM (inactive) in each case. In addition, the GI50 in assay [6], in assay [7], in [8], in assay [9], in assay [20] and in assay [11] was > 100 µM (inactive) each time. Besides, the GI50 in [12], in assay [13], in assay [14], in assay [15], in assay [16] and in assay [17] was > 100 µM (inactive) each time. Besides, in assay [18], the GI50 is > 100 µM (inactive).

Regarding `OCCN(C1=NCCN1)/[N+](=C/c1ccc(Cl)cc1)[CH-]c1ccc(Cl)cc1`, the GI50 in assay [1], in assay [2], in [3], in assay [4], in assay [5] and in assay [6] was > 100 µM (inactive) in each case. Further, the GI50 in [7] was > 100 µM (inactive); in assay [8], > 100 µM (inactive); in [9], 26.5 µM (inactive); in assay [10], 99.1 µM (inactive); in [11] it was 61.8 µM (inactive); in [12], > 100 µM (inactive). Further, the GI50 was 23.8 µM (inactive) in [13]; 84.3 µM (inactive) in assay [14]; 62.5 µM (inactive) in assay [15]; > 100 µM (inactive) in [17]; > 100 µM (inactive) in assay [18].

Consider `O=C(/C=C/C(Cl)(Cl)Cl)Nc1ccc(Cl)cc1`, for which the GI50 in assay [1] is 14.2 µM (inactive); in assay [2], 13.5 µM (inactive); in assay [3], 4.94 µM (inactive); in assay [4], 17.7 µM (inactive); in assay [5], 18.9 µM (inactive); in assay [19] it was 13.9 µM (inactive). Moreover, the GI50 in assay [6] is 0.698 µM (active); in assay [7], 2.45 µM (inactive); in assay [8], 3.23 µM (inactive); in [9], 1.64 µM (inactive); in assay [20], 1.48 µM (inactive); in assay [11] it was 1.56 µM (inactive). Besides, the GI50 in assay [12] is 3.69 µM (inactive); in assay [13], 11.1 µM (inactive); in assay [14], 0.514 µM (active); in [15], 12.5 µM (inactive); in [16], 2.09 µM (inactive); in [17], 3.74 µM (inactive). Moreover, in [18], the GI50 was 2.49 µM (inactive).

In the case of `O=C1CSc2nc3ccccc3n2/C=N\N1`, the GI50 in assay [1], in [2], in assay [4], in [5], in [19] and in assay [6] was > 100 µM (inactive) in each case. Further, the GI50 in assay [7], in [8], in [9], in assay [10], in assay [11] and in [13] was > 100 µM (inactive) in each case. The GI50 in [14], in assay [15], in assay [16], in assay [17] and in assay [18] was > 100 µM (inactive) throughout.
